Assay [1] relates to DLD-1. Nature of the assay: Cytotoxicity against human DLD1 cells by MTT assay. It counts as functional, cell-based. (In general: Tetrazolium assays rely on reduction of a dye to a coloured formazan, in cell work by metabolically active cells.)
For assay [2], the system named is DLD-1. Nature of the assay: Antioxidant activity in human DLD1 cells assessed as glutathione reactivity by measuring GSH level per mg protein by ortho-phthalaldehyde probe based fluorescence spectrometric method (reference value: 2.19 +/- 0.18 nmol). It counts as functional.
Assay [3] has as its system DLD-1. Nature of the assay: Antioxidant activity in human DLD1 cells assessed as ratio of reduced glutathione to oxidized glutathione by ortho-phthalaldehyde probe based fluorescence spectrometric method (reference value: 3.19 +/- 0.2). It is filed as functional.
The subject of assay [4] is DLD-1. Nature of the assay: Down regulation of MRP1 expression in human DLD1 cells at 100 uM after 24 hrs by fluorescence assay. It is filed as functional, cell-based.
In assay [5] the target is T1, Extracellular superoxide dismutase [Cu-Zn] (Homo sapiens) (UniProt P08294).
T1 sequence (whole entry): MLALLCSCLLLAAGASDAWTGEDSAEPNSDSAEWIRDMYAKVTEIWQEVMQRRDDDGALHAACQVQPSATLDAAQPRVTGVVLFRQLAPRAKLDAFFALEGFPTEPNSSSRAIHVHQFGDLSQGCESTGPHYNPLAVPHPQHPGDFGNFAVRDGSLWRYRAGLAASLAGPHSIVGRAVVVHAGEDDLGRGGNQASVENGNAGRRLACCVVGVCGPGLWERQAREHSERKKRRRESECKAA
Nature of the assay: Inhibition of SOD3 in human DLD1 cells at 100 uM using xanthine as substrate pretreated for 24 hrs followed by substrate addition after 5 mins by NBT dye based spectrophotometric method. It counts as cell-based.

Assay [6] is described as follows: Antioxidant activity assessed as ABTS radical scavenging activity at 100 uM after 5 mins by spectrophotometric method. It is filed as functional.
For assay [7], the system named is DLD-1. Nature of the assay: Antioxidant activity in human DLD1 cells assessed as glutathione reactivity by measuring GSSG level per mg protein by ortho-phthalaldehyde probe based fluorescence spectrometric method (reference value: 0.69 nmol). It counts as functional.
The nature of assay [8]: Glutathione reactivity assessed as rate constant for total GSH loss by UV-vis spectrophotometric method.
Assay [9] in a line: Antioxidant activity of the compound assessed as DPPH radical scavenging activity at 1 mM after 5 mins by spectrophotometric method. It counts as functional. (In general: Loss of DPPH colour is used to gauge radical scavenging.)
The test system of assay [10] is DLD-1. Nature of the assay: Antiproliferative activity against human DLD1 cells at 100 uM after 4 to 48 hrs by Alamar blue assay. It counts as functional, cell-based.
The target in assay [11] is T2, Superoxide dismutase [Mn], mitochondrial (Homo sapiens) (UniProt P04179).
T2 sequence (whole entry): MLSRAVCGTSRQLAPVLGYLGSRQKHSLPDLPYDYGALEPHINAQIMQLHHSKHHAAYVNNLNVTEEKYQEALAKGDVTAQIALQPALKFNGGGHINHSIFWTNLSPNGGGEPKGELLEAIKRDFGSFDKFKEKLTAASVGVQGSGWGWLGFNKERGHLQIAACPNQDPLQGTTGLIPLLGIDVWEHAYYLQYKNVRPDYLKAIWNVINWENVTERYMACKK
Nature of the assay: Inhibition of mitochondrial SOD2 in human DLD1 cells at 100 uM using xanthine as substrate pretreated for 24 hrs followed by substrate addition after 5 mins by NBT dye based spectrophotometric method. It is filed as cell-based.

Assay [12] can be described thus: Antioxidant activity assessed as ABTS radical scavenging activity after 5 mins by spectrophotometric method. It is filed as functional. More on the design: unit not given here.
The nature of assay [13]: Antioxidant activity of the compound assessed as DPPH radical scavenging activity after 5 mins by spectrophotometric method. It counts as functional. Also on record: unit not given here.
The target in assay [14] is Superoxide dismutase 1/2 (Homo sapiens) (UniProt P00441+P04179). Nature of the assay: Inhibition of SOD1/SOD2 in human DLD1 cells at 100 uM using xanthine as substrate pretreated for 24 hrs followed by substrate addition measured after 5 mins by NBT dye based spectrophotometric method. It is filed as cell-based.

In general, IC50 refers to the midpoint of a concentration-inhibition curve. As usually defined, the inhibition is the drop in the measured response relative to a control, in per cent.

Activity calls are given as the source filed them. No cut-off for these calls is given here.

Superoxide dismutase 1/2 (Homo sapiens), sequence (P00441 whole entry, looked up, one chain of several): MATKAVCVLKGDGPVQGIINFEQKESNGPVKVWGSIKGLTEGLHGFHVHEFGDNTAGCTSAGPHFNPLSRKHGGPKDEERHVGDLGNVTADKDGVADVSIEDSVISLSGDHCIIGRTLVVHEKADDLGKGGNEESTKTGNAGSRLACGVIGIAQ

With `CCOc1ccc(C=C(C(=O)/C=C/c2ccc(O)c(OC)c2)C(=O)/C=C/c2ccc(O)c(OC)c2)cc1OCC`, the figures for the IC50 (in the assay on DLD-1 [1]; in assay [12]; in [13]) were 4.12 µM, 10 µM and 73 µM, respectively. Besides, the Activity in the assay with DLD-1 [2] was found to be 4.27 nmol; in the assay on DLD-1 [7], 1.88 nmol. Also, the Ratio in the assay with DLD-1 [3] is given as 2.28. The outcome (in the assay on DLD-1 [4]; in [8]; in the assay with DLD-1 [10]) was Active. Moreover, the inhibition result in assay [5] and in assay [14] was “inactive” throughout. Besides, the inhibition in assay [6] was found to be 74.9%; in [9], 61.9%. The inhibition result in [11] was “Active”. Besides, the 1/IC50 in [12] was 0.1; in [13] it was 0.014.

Regarding `CCOc1cc(/C=C/C(=O)C(=Cc2ccc(O)cc2)C(=O)/C=C/c2ccc(O)c(OCC)c2)ccc1O`, the IC50 with DLD-1 [1] was 20.3 µM; in [12], 14.8 µM; in assay [13], 48 µM. In addition, the Activity stood at 3.59 nmol in the assay with DLD-1 [2] and 3.13 nmol in the assay on DLD-1 [7]. The Ratio with DLD-1 [3] came out at 1.15. Moreover, the result (in the assay on DLD-1 [4]; in assay [8]; in the assay on DLD-1 [10]) was Active. For the same compound, the inhibition result in assay [5], in [11] and in assay [14] was “inactive” each time. The inhibition in assay [6] was found to be 87.7%; in [9], 74.4%. In addition, the 1/IC50 in [12] is 0.068; in [13] it was 0.021.

For `CCOc1cc(/C=C/C(=O)C(=Cc2ccccc2)C(=O)/C=C/c2ccc(O)c(OCC)c2)ccc1O`, the figures for the IC50 (with DLD-1 [1]; in assay [12]; in assay [13]) were 5.06 µM, 20.4 µM and 91.4 µM, respectively. Moreover, the Activity in the assay on DLD-1 [2] came out at 3.27 nmol; in the assay with DLD-1 [7], 0.48 nmol. Further, the Ratio in the assay with DLD-1 [3] is 6.89. For the same compound, the outcome (in the assay on DLD-1 [4]; in [8]; with DLD-1 [10]) was Active. The inhibition in assay [6] stood at 60.5%; in [9], 54.7%. Moreover, the inhibition result in assay [11] and in assay [14] was “Active” throughout. In addition, the 1/IC50 stood at 0.049 in assay [12] and 0.011 in assay [13].

Consider `COc1cc(/C=C/C(=O)C(=Cc2ccc(OC)c(OC)c2)C(=O)/C=C/c2ccc(O)c(OC)c2)ccc1O`, for which the IC50 came out at 3.07 µM in the assay with DLD-1 [1], 6.76 µM in assay [12] and 71 µM in [13]. Further, the values for the Activity with DLD-1 [2] and with DLD-1 [7] were 3.93 nmol and 4.21 nmol, respectively. Besides, the Ratio in the assay with DLD-1 [3] was determined as 0.93. The result (in the assay with DLD-1 [4]; in assay [8]; with DLD-1 [10]) was Active. Also, the inhibition result in [5] is “inactive”. The inhibition in [6] was determined as 83.6%; in assay [9], 64.8%. The inhibition entry in assay [11] and in assay [14] was “Active” each time. The 1/IC50 in assay [12] amounted to 0.148; in assay [13], 0.014.

Source of the values: ChEMBL document CHEMBL4020732, “Synthesis, structural characterization and biological activity of novel Knoevenagel condensates on DLD-1 human colon carcinoma” (Bioorg Med Chem Lett, 2017).
